# What was measured:
# AD hippocampus = assay: Homing of intravenously injected individual peptide-displaying phages; format: in vivo, mouse; conditions: intravenously injected phage displaying the peptide
# Description: FIG. 1B relates to phage titration showing that about 5 times more phage were recovered from the AD hippocampus than from the normal control. In the sequencing, phages displaying the peptides code named CASP (SEQ ID NO: 3; CASPRLSKC), CES (SEQ ID NO: 11, CESPLLSEC), and DAG (SEQ ID NO: 102, CDAGRKQKC) dominated. Hippocampus from age-matched normal wild-type mouse brain was used as a control.
# Tg2576 mouse brain = assay: In vivo homing of FAM-DAG in Tg2576 mice
# Protocol: (§1) All animal experiments were conducted under an approved protocol of the Institutional Animal Care and Use Committee of Sanford Burnham Prebys Medical Discovery Institute. The following transgenic mouse models were used for peptide homing studies—hAPP-J20 ([…], Nature genetics 1, 345-347 (1992)), Tg2576 (Jacobsen et al., Proc Natl Acad Sci USA 103, 5161-5166 (2006)), and mTHY-1-α-synuclein model (Chesselet et al., Neurotherapeutics 9, 297-314 (2012)). The P13 glioblastoma model is a patient-derived orthotopic xenograft model (Bougnaud et al., Oncotarget, (2016)). Spheroids were cultured as described previously (Bjerkvig et al., J Neurosurg 72, 463-475 (1990)). After two weeks in culture, spheroids (volume 2.5 μl) were stereotactically implanted into the brains of nude mice. Mice were used approximately 6 weeks after tumors were induced, when mice started presenting neurological symptoms. The acute brain injury model was setup as previously described (Mann et al., Nature communications 7, 11980 (2016)). Briefly, 8 to 10 week-old male BL6 mice were anaesthetized with 4% isoflurane in 70% N2O and 30% O2, and a 5-mm craniotomy was performed using a portable drill and a trephine over the right parietotemporal cortex using a stereotactic frame. […]
# recombinant human CTGF = molecular target: T1, recombinant human CTGF (Homo sapiens, UniProt P29279); assay: ELISA binding to recombinant CTGF
# T1 construct: purchased Affymetrix 14-8503-80
# T1 sequence (P29279 253-349 limits assumed): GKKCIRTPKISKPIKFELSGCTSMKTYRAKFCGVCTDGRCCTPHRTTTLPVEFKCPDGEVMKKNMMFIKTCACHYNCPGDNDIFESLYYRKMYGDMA
# Protocol: FIG. 10 is a graphical representation relating to identification of a receptor for DAG. DAG binds to recombinant CTGF. FAM-DAG was incubated on ELISA plate coated with recombinant human CTGF at two different peptide concentrations of the FAM peptide alone (light gray bars), or in the presence of non-labeled DAG (0.5 mM) (dark gray bars). […] DAG was also shown to colocalize with CTGF. FAM-DAG was intravenously injected in 9-month-old hAPP-J20 and WT mice, allowed to circulate for 30 minutes, after which mice were perfused, and the brains were fixed, sectioned and stained for FAM (green) and CTGF (red).
# Human CTGF recombinant protein (Affymetrix Cat #14-8503-80) was incubated on Nunc low-binding plates at concentration of 10 μg/ml for overnight at 4° C. Excess protein in the plates was removed by washing with PBS-T (PBS with 0.005% Tween 20). Plates were blocked with 200 μl of 3% non-fat milk in PBS for 1 hour at room temperature and washed with PBS-T once. Biotin-labeled peptide (at different concentrations) in PBS was added to the plate for 2 hours at 37° C. For peptide inhibition, non-labeled DAG peptide (0.5 mM) was added 30 minutes prior to addition of labeled peptide. The plates were washed with 100 μl PBS-T for three times to remove excess peptide. The bound peptide was detected by incubating with 100 μl of Vectastain ABC™ reagent (Vector labs, Burlingame, Calif.) for 30 minutes. The plate was washed with 100 μl PBS-T three times. Next, 100 μl of o-phenylenediamine dihydrochloride (OPD) silver and gold substrate (Sigma-Aldrich) was added to the wells and incubated at room temperature until visible color was observed (˜30 min). Adding 50 μl of 1 M H2SO4 stopped the reaction and the plate was read at 495 nm (FlexStation™ 3 Reader, Molecular Devices, Sunnyvale, Calif., USA).
# albumin (BSA) = albumin (BSA) (Bos taurus, UniProt P02769); assay: ELISA binding to control protein
# albumin (BSA), sequence (P02769 25-607): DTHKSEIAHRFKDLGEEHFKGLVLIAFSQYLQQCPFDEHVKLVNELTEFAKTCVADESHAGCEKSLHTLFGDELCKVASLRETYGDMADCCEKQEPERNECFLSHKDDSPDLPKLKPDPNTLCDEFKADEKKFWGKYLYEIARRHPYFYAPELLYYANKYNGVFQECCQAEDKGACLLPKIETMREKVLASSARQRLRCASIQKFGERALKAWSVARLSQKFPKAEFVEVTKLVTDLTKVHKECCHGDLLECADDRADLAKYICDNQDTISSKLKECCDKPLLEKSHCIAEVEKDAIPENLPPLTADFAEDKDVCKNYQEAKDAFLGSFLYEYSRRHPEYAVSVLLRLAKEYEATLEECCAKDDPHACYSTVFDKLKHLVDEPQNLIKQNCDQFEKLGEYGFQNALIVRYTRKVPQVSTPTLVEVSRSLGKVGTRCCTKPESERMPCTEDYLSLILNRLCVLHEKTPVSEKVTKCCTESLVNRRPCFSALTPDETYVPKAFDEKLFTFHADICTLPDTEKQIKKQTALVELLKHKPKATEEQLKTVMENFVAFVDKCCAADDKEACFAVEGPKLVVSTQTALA
# [1] = test system: P13 model of angiogenic glioblastoma; assay: In vivo homing in P13 glioblastoma model; set-up: species or system mouse; conditions: systemically injected
# Protocol: as §1
# [2] = test system: acute penetrating brain injury; assay: In vivo homing in acute penetrating brain injury model; set-up: species or system mouse; conditions: injected 6 hours after injury
# Protocol: as §1
# [3] = test system: hAPP-J20 mouse brain (hippocampus)
# Protocol: The synthetic peptides were labeled with FAM and 100 nmol and were intravenously injected to 9-month old AD mice through the tail vein. The peptides were allowed to circulate for 30 min, after which the mice were perfused with 20 ml of PBS, the brains were collected and snap-frozen in OCT for sectioning. The peptides were detected by anti-FAM staining (green), nuclei were stained with DAPI (blue), and anti-CD31 was used to visualize blood vessels.
# For peptide homing, mice were intravenously injected with 50 nmole peptide dissolved in PBS, and allowed to circulate for 30 min. Mice were then perfused intracardially with saline and all major organs were isolated and fixed in 4% paraformaldehyde (PFA) at pH 7.4 overnight. The organs were then washed with PBS and placed in graded sucrose solutions overnight before optimal cutting temperature compound (OCT) embedding. Ten-micro-meter-thick sections were cut and analyzed by immunostaining.
# Frozen sections were permeabilized using PBS- 0.2% Triton™ X-100 (PBST), blocking was carried out using blocking buffer (5% BSA, 1% goat serum, 1% donkey serum in PBST. Primary antibodies were incubated in diluted (1%) blocking buffer overnight at dilutions 1/100 or 1/200 at 4° C., washed with PBST and incubated with secondary antibodies diluted 1/200 or 1/500 in 1% diluted buffer for 1 hour at room temperature, subsequently washed with PBST, counterstained with DAPI 1 μg/mL in PBS for 5 minutes, washed with PBS, mounted using aqueous mounting media (Vector Biolabs), and imaged using a confocal microscope (Zeiss LSM-710).
sequence,measurement,setting,value
CDAGRKQKC,Phage accumulation in normal brain,AD hippocampus,no accumulation in normal brain
same,Phage homing to AD hippocampus,AD hippocampus,home to AD hippocampus with high specificity
same,Colocalization in Tg2576 brain sections,"Tg2576 mouse brain; DAG-injected Tg2576 mice, immunostaining",significant colocalization of DAG with Aβ and CD31
same,Homing in Tg2576 model,Tg2576 mouse brain; i.v. FAM-DAG,detected both in the hippocampus and in the cortex
same,Binding to CTGF-coated plates,recombinant human CTGF; ELISA,bound to CTGF-coated plates in a dose-dependent manner
same,Inhibition of CTGF binding by unlabeled DAG,recombinant human CTGF; non-labeled DAG 0.5 mM,inhibited in the presence of an excess of unlabeled DAG
same,Binding to control protein (BSA),albumin (BSA),only minimal binding to a control protein (BSA)
same,Tumor homing,[1],Strong tumor homing
same,Homing to brain injury,[2],robustly homed to the perilesional area containing activated hypertrophic astrocytes
same,Homing in early-stage AD,"[3]; 3-4 month old hAPP-J20 mice, i.v., 30 min","Robust DAG homing in young hAPP-J20 animals was observed, mostly in the cerebrocortex and the hippocampus"
same,Cellular localization in brain,"[3]; DAG-injected hAPP-J20 mice, anti-GFAP and anti-Aβ staining",accumulated within a subpopulation of GFAP-positive hypertrophic astrocytes surrounding the Aβ plaques
same,Accumulation in other organs,"[3]; mouse, in vivo, iv",little if any accumulation of the peptide in other organs of the hAPP-J20 mouse except for kidney

# Reference: patent US11571485B2, “Peptides and antibodies for detecting changes in alzheimer's disease brain and methods of use thereof” (Sanford Burnham Prebys Medical Discovery Institute, priority 2016, dated 2023)
